Results on 13 molecules are retold here after ChEMBL document CHEMBL3046467, “Structure-activity relationship of carboxin-related carboxamides as fungicide” (2011).

Common to all, as to format: functional
The test system of assay [1] is Pyricularia grisea. Nature of the assay: Fungicidal activity against Magnaporthe grisea spores inoculated on leaves of compound pre-treated 2 or 3 leaf-stage rice plants assessed as rice blast disease control level at 250 ppm measured after 7 days post fungal inoculation.
Assay [2] deals with Puccinia recondita. Nature of the assay: Fungicidal activity against Puccinia recondita spores inoculated on leaves of compound pre-treated 1.5 leaf-stage wheat plants assessed as wheat brown rust disease control level at 250 ppm measured after 8 days post fungal inoculation.
For assay [3], the system named is Podosphaera xanthii. Nature of the assay: Fungicidal activity against Podosphaera xanthii (powdery mildew) spores inoculated on leaves of compound pre-treated 1.5 leaf-stage cucumber plants assessed as powdery mildew disease control level at 250 ppm measured after 7 days post fungal inoculation.
Assay [4] concerns Botrytis cinerea. Nature of the assay: Fungicidal activity against Botryotinia fuckeliana spores inoculated on leaves of compound pre-treated seed-leaf stage kidney beans assessed as gray mold disease control level at 62.5 ppm measured after 4 days post fungal inoculation.
For assay [5], the system named is Botrytis cinerea. In words: Fungicidal activity against Botryotinia fuckeliana spores inoculated on leaves of compound pre-treated seed-leaf stage kidney beans assessed as gray mold disease control level at 500 ppm measured after 4 days post fungal inoculation.
For assay [6], the system named is Puccinia recondita. In words: Fungicidal activity against Puccinia recondita spores inoculated on leaves of compound pre-treated 1.5 leaf-stage wheat plants assessed as wheat brown rust disease control level at 25 ppm measured after 8 days post fungal inoculation.
The subject of assay [7] is Podosphaera xanthii. In words: Fungicidal activity against Podosphaera xanthii (powdery mildew) spores inoculated on leaves of compound pre-treated 1.5 leaf-stage cucumber plants assessed as powdery mildew disease control level at 25 ppm measured after 7 days post fungal inoculation.

A value given as a limit tells only on which side of the number the result lay.

As to `Cc1occc1C(=O)Nc1ccccc1-c1ccccc1`, the Activity entry is listed as “>=95%” in assay [1], “>=95%” in assay [2], less than 95% in assay [3] and “>=95%” in assay [4].

For `CCc1sccc1NC(=O)c1cn(C)nc1C(F)(F)F`, the Activity result in assay [5] is given as “>=95%”.

As for `CC(C)CC(C)c1sccc1NC(=O)c1ccccc1Cl` (centres undefined), the Activity was less than 95% in assay [1], “>=95%” in assay [6], “>=50%” in assay [7] and “>=95%” in assay [5].

As for `CC(C)CCC(C)c1sccc1NC(=O)c1cn(C)nc1C(F)(F)F` (centres undefined), the Activity entry in assay [1] is “>=95%”; in assay [6] it was “>=95%”; in assay [7], “>=50%”; in assay [5], “>=95%”.

With `Cn1cc(C(=O)Nc2ccccc2-c2ccccc2)c(C(F)(F)F)n1`, the Activity in assay [1] is on record as less than 95%; in assay [2] it was “>=95%”; in assay [7], “>=50%”; in assay [4] it was “>=95%”.

Regarding `Cn1cc(C(=O)Nc2ccccc2-c2ccccc2)c(Cl)n1`, the Activity in assay [1], in assay [2], in assay [3] and in assay [5] was less than 95% each time.

On to `CC(CC(C)(C)C)c1sccc1NC(=O)c1cn(C)nc1C(F)(F)F` (centres undefined), for which the Activity in assay [1] is given as less than 95%; in assay [6], “>=95%”; in assay [7] it was “>=95%”; in assay [5], less than 95%.

Consider `Cc1nc(C(F)F)c(C(=O)Nc2ccccc2-c2ccccc2)s1`, for which the Activity result was “>=95%” in assay [1], less than 95% in assay [2], “>=50%” in assay [7] and “>=95%” in assay [4].

On to `CC1CC(C)(C)c2cccc(NC(=O)c3cccnc3Cl)c21` (centres undefined), for which the Activity in assay [1] is listed as less than 95%; in assay [2] it was less than 95%; in assay [3] it was less than 95%; in assay [4], “>=50%”.

For the molecule `Cc1nc(Cl)c(C(=O)Nc2ccccc2-c2ccccc2)s1`, the Activity in assay [1], in assay [2], in assay [3] and in assay [5] was less than 95% each time.

Turning to `CC1=C(C(=O)Nc2ccccc2-c2ccccc2)SCCO1`, the Activity in assay [1] is reported as less than 95%; in assay [2], less than 95%; in assay [7] it was “>=50%”; in assay [4], “>=95%”.

On to `Cc1ccsc1C(=O)Nc1ccccc1-c1ccccc1`, for which the Activity is given as less than 95% in assay [1], less than 95% in assay [2], “>=95%” in assay [3] and “>=95%” in assay [4].

Turning to `O=C(Nc1ccccc1-c1ccccc1)c1nccnc1Cl`, the Activity is less than 95% in assay [1], less than 95% in assay [2], “>=95%” in assay [3] and “>=95%” in assay [4].
